Measured values: patent publication US12612431B2, “Cyclic compounds for treating cancer” (University of South Florida, priority 2021, dated 2026)

Key:
[1] = cited from earlier work
[2] = general statement on the positive control; cited from earlier work
[3] = test system: AKT phosphorylation (P-AKT); assay: Western blot of downstream AKT phosphorylation in A549 cells; assay type: cell-based; conditions: starved A549 cells, 4 h pretreatment, EGF 100 ng/mL
Procedure: (§1) A549 cells were chosen due to their elevated expression of EGFR. […] The ability of M-2-5 to inhibit EGF-stimulated tyrosine phosphorylation of EGFR, as well as downstream AKT and ERK pathways in a dose-dependent manner was then investigated.
(§2) A549 cells were seeded into a 6-well plate at a concentration of 1×10^5 cells/well. After 12 h attachment at 37° C. and 5% CO2, the cells were starved overnight in serum-reduced DMEM followed by treatment with different concentration of M-2-5 for 4 h. […] Subsequently, the cells were incubated on ice for 10 min and centrifuged at 14,000×g at 4° C. for 10 min. An equal amount of protein was run on 4˜12% Bis-Tris gels, transferred to polyvinylidene difluoride membranes (Millipore) and western blotted with anti-phosphorylated EGFR, anti-phosphorylated AKT, anti-phosphorylated ERK and GAPDH. The experiments were conducted in triplicates and repeated for three times.

[4] = target: T1, EGFR phosphorylation (P-EGFR) (Homo sapiens, UniProt P00533); assay: Western blot of EGF-stimulated EGFR phosphorylation in A549 cells; assay type: cell-based
T1 construct: endogenous in cells; host or cells: A549
Procedure: as §1, §2

A549 cells [5] = assay: Scratch-wound (cell wound healing) assay; assay type: cell-based; conditions: A549, 25 μM, 30 h
Procedure: (§3) M-2-5's inhibitory effect on cell migration of A549 cells, which plays an important role in tumor metastatic activity, was then investigated. First, a scratch-wound assay was established to investigate the cell migratory behaviors.
A549 cells in good condition were seeded into a 12-well plate at a concentration of 5×10^4 cells/well. After 24 h attachment at 37° C. and 5% CO2, they reached confluence as a monolayer. The monolayer was scratched gently and slowly with a new 200 μL pipette tip across the center of the well straightly. After scratching, the well was washed twice with medium to remove the detached cells. The well was then replenished with fresh medium containing different concentration of M-2-5. The photo was taken for the scratched monolayer and then captured again after 30 h for the same wound. The wound width was measured by ImageJ. The experiments were conducted in triplicates and repeated for three times.

P-EGFR = target: T2, P-EGFR (Homo sapiens, UniProt P00533); assay: Western blot of P-EGFR in A549 tumor lysates; assay type: in vivo, mice; conditions: M-2-5 50 mg/kg
T2 construct: from tissue; host or cells: A549 xenograft tumours from nude mice
Procedure: (§4) After another 6 days post injection, mice were sacrificed, and tumors were resected. […] To confirm the expression level of P-EGFR and downstream signaling, the total proteins were extracted from tumor tissues in each group and subjected to immunoblotting of P-EGFR, P-ARK and P-ERK. […] In addition, the phosphorylation level of EGFR in the A549 tumor sections was analyzed by immunohistochemical staining.
(§5) The supernatant was transferred to a new tube and samples were centrifuged at 14,000 rpm for 15 min at 4° C. to remove any remaining insoluble material. The supernatant containing soluble proteins was transferred to a new tube and an aliquot was taken for the quantification and the further western blot analysis.

[6] = Body weight of A549 tumor xenografted mice; assay type: in vivo; conditions: 10 and 50 mg/kg intraperitoneal, FIG. 10
Procedure: (§6) Based upon the observed strong inhibition of cell proliferation and migration, the ability to inhibit EGFR cell signaling pathways in vitro, as well as the remarkable stability against proteolytic degradation, the antitumor activity of M-2-5 in a A549 lung tumor xenograft mouse model was evaluated in vivo. […] After another 6 days post injection, mice were sacrificed, and tumors were resected. […] To confirm the expression level of P-EGFR and downstream signaling, the total proteins were extracted from tumor tissues in each group and subjected to immunoblotting of P-EGFR, P-ARK and P-ERK. […] In addition, the phosphorylation level of EGFR in the A549 tumor sections was analyzed by immunohistochemical staining. […] Together with its similar function to monoclonal antibody and its high resistance toward proteolytic degradation, it could be further investigated for promising clinical anti-cancer drug development.
A549 cells were harvested, resuspended in PBS, and injected subcutaneously into 4-6 weeks old Male BALB/c nude mice. When the tumors reach an average size of 100 mm^3, the mice were then randomized divided into four treatment groups: Control (PBS), C-225 (40 mg/kg), M-2-5 (10 mg/kg) and M-2-5 (50 mg/kg). […] The tumor volumes were determined by measuring length (l) and width (w) and calculating volume (V=lw^2/2).

pronase = assay: Enzymatic stability assay toward pronase; assay type: in vitro ADME; conditions: 0.1 mg/mL pronase, 100 mM ammonium bicarbonate buffer, 37° C., 20 h
Procedure: As M-2-5 is a promising ligand to block EGFR signaling in vitro, its enzymatic stability toward pronase (the enzyme theoretically digesting peptides into single amino acids), which is critical for their potential biological activity in vivo was evaluated.
Cyclic γ-AApeptides M-2-5 (0.1 mg/mL) were incubated with 0.1 mg/mL protease in 100 mM ammonium bicarbonate buffer (pH 7.8) at 37° C. for 20 h. Then, the reaction mixtures were concentrated in a speed vacuum to remove water and ammonium bicarbonate. The resulting residues were re-dissolved in H2O/MeCN and analyzed on a Waters analytical HPLC system.

[7] = test system: Human Embryonic Kidney HEK293 cells
[8] = test system: ERK phosphorylation (P-ERK); assay: Western blot of downstream ERK phosphorylation in A549 cells; assay type: cell-based; conditions: starved A549 cells, 4 h pretreatment, EGF 100 ng/mL
Procedure: as §1, §2

P-AKT = assay: Western blot of P-AKT in A549 tumor lysates; assay type: in vivo, mice; conditions: M-2-5 50 mg/kg
Procedure: as §4, §5

PAMPA-GIT assay = conditions: pH 5.0, 6.2 and 7.4 (FIG. 8B)
Procedure: (§7) Carbamazepine and Antipyrine were used as the positive and negative control compounds for the assay.
The PAMPA-GIT assay procedure was realized by using a method developed by pION. All liquid handling steps for the PAMPA assay are performed on a TECAN Fredom EVO150 robot and analyzed by the pION's PAMPA Evolution Software. The pION's GIT PAMPA includes the acceptor sink buffer (ASB), the GIT-0 Lipid Solution and the Stirwell™ PAMPA Sandwich plate, preloaded with magnetic disks. 4 μL of lipid were transferred in the acceptor well, followed by addition of 200 μL of ASB (pH 7.4). […] The PAMPA sandwich plate was assembled and placed on the Gut-Box™ and stirred with 40 μm ABL settings for 30 min. The distribution of the compounds in the donor and acceptor buffers (150 μL aliquot) was determined by UV spectra measurement from 200 to 498 nm using the Tecan infinite M-1000 pro microplate reader. Then the Permeability (Papp, 10 ^6 cm/s) of each compound was calculated by the pion PAMPA evolution software. The assays were repeated three times.

P-ERK = assay: Western blot of P-ERK in A549 tumor lysates; assay type: in vivo, mice; conditions: M-2-5 50 mg/kg, compared to C225
Procedure: as §6
For the detection of phosphorylated EGFR, AKT and ERK in tumors in vivo, a portion of the tumor (80 mg) was immersed in 500 μL extraction buffer (50 mM Tris-HCl (pH 7.4), 150 mM NaCl, 1% NP-40, 0.25% Na-deoxycholate, Protease Inhibitor, SDS 0.1-2%), and tubes were vortexed briefly. […] The supernatant containing soluble proteins was transferred to a new tube and an aliquot was taken for the quantification and the further western blot analysis.

[9] = test system: A549 lung tumor xenograft; assay: Antitumor study in A549 lung tumor xenograft mouse model; assay type: in vivo, mice; conditions: every two days for seven times
PAMPA-BBB assay = conditions: pH 7.4
Procedure: as §7
The parallel artificial membrane permeability assay—blood brain barrier (PAMPA-BBB) assay procedure was realized by using a method developed by pION. All liquid handling steps for the PAMPA assay are performed on a TECAN Fredom EVO150 robot and analyzed by the pION's PAMPA Evolution Software. The pION's PAMPA-BBB includes the brain sink buffer (BSB), the BBB-1 Lipid Solution and the Stirwell™ PAMPA Sandwich plate, preloaded with magnetic disks. 4 μL of lipid were transferred in the acceptor well, followed by addition of 200 μL of BSB (pH 7.4). […] The PAMPA sandwich plate was assembled and placed on the Gut-Box™ and stirred with 60 μm Aqueous Boundary Layer (ABL) settings for 1 hour. The distribution of the compounds in the donor and acceptor buffers (150 μL aliquot) was determined by UV spectra measurement from 200 to 500 nm using the Tecan infinite M-1000 pro microplate reader. […] Experiments were repeated three times.

A549 cells [10] = assay: Transwell migration assay; assay type: cell-based; conditions: A549, EGF + M-2-5 25 μM, 12 h
Procedure: as §3
A549 cells in good condition were seeded into a 100 mm dish at a concentration of 5×10^5 cells. After overnight attachment at 37° C. and 5% CO2, culture medium was replaced with serum reduced DMEM medium, and the dish was returned to incubator for 24 h. Cells were the detached and resuspended in DMEM at a concentration of 1×10^6 cells/mL. Next, 100 μL of cell solution was plated on top of the filter membrane in a transwell insert and incubated for 10 minutes at 37° C. and 5% CO2 to allow the cells to settle down. Subsequently, 600 μL of the desired chemo-attractant was added very carefully into the bottom of the lower chamber in a 24-well plate. The culture was incubated for 12 h, and then the transwell insert was removed from the plate. A cotton-tipped applicator was used as many times as needed to carefully swab the inside of each insert. Cells were fixed by 70% ethanol, stained by 0.2% crystal violet and visualized by microscope. Transwell data was determined by the number of the migrated cells and the value from parental cells was arbitrarily set at 100%. The experiments were conducted in triplicates and repeated for three times.

A549 cells [11] = assay: EGF-driven cell proliferation assay (CCK-8); assay type: cell-based; conditions: A549, EGF 100 ng/mL, 48 h
Procedure: A549 cells were cultured in high-glucose DMEM (Gibco) medium containing 10% fetal bovine serum and 1% penicillin/streptomycin in an atmosphere of 5% CO2 at 37° C. A549 cells in good condition were seeded into a 96-well plate at a concentration of 1×10^3 cells/well in 100 of complete growth medium. After 24 hours of attachment at 37° C. and 5% CO2, medium was replaced by fresh serum reduced DMEM and cell were serum-starved overnight. […] After 48 h, the CCK-8 reagents were added according to the manufacturer's recommendations.

T1 sequence (P00533 25-1210): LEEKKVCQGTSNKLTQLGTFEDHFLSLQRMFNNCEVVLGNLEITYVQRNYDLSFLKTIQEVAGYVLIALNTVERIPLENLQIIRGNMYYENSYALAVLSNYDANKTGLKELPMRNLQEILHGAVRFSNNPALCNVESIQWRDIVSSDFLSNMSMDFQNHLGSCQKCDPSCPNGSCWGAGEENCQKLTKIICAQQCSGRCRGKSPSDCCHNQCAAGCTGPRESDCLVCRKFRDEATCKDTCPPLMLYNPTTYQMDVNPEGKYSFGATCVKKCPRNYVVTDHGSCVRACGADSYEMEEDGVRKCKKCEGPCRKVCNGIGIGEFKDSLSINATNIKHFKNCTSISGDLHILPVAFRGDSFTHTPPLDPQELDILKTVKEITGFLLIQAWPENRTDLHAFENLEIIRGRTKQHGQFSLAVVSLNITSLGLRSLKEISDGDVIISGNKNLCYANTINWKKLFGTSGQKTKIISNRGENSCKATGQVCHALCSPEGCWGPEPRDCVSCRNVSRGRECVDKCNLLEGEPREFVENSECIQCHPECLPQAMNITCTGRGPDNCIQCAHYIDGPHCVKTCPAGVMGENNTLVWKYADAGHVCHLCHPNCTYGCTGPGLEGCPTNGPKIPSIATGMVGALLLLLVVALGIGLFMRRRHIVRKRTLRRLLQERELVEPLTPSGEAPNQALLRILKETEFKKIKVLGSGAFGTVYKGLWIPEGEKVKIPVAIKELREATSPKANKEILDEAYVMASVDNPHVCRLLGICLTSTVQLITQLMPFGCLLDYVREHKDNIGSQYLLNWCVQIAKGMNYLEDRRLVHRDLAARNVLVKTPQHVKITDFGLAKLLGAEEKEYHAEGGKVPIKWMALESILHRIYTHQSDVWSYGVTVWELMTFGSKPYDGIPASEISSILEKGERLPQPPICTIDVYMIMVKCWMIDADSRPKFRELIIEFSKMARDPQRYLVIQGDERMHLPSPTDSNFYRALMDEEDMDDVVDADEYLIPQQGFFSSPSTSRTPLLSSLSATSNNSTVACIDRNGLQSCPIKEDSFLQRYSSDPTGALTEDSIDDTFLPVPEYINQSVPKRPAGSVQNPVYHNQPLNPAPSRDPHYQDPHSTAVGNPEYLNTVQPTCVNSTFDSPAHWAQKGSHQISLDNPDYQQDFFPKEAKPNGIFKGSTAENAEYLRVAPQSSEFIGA
T2 sequence (P00533 25-1210): as above

**Q.** For `Cc1cc(=O)n(-c2ccccc2)n1C` [Antipyrine], which “Papp values (background)” value [1] is on record?
**A.** The value was “low Papp values”.

**Q.** Which “absorption in the human gastrointestinal tract” value [2] does the source give for `NC(=O)N1c2ccccc2C=Cc2ccccc21` [Carbamazepine] here?
**A.** The value was > 90%.

**Q.** Which IC50 [3] does the source give for `COc1cc(CC(=O)N2CC(=O)N[C@@H](Cc3ccccc3)CN(CC(N)=O)C(=O)CCSCc3ccc(cc3)C(=O)N[C@@H](CCCCN)CN(C(=O)CCC3CCCCC3)CC(=O)N[C@@H](Cc3ccccc3)CN(C(=O)CCc3ccccc3)CC(=O)N[C@@H](Cc3ccccc3)C2)cc(OC)c1` [M-2-5] here?
**A.** The IC50 was 8.75 µM.

**Q.** And the IC50 [4]?
**A.** The IC50 was 17.7 µM.

**Q.** What about the “effect on EGF-induced EGFR activation” value ([4]; starved A549 cells, 20 μM M-2-5 for 4 h, EGF 100 ng/mL (FIG. 5C, 5D)) of the same molecule?
**A.** Its value is “blocked a vast majority of EGFR activation”.

**Q.** And the “inhibition of EGF stimulation of EGFR phosphorylation at 25 μM or more” value ([4]; starved A549 cells, 4 h pretreatment, 25 μM or more)?
**A.** The value was “almost complete blockage”.

**Q.** And the “percent of wound closed” value (A549 cells [5])?
**A.** Its value is 15.2%.

**Q.** And the “decrease of wound closed compared with untreated control” value (A549 cells [5]; control 55.3%)?
**A.** Its value is 40%.

**Q.** And the “P-EGFR level in tumor tissue” value (P-EGFR)?
**A.** Its value is “dramatic decrease”.

**Q.** And the body weight gain [6]?
**A.** The body weight gain was “did not affect the body weight gain”.

**Q.** And the “degradation by pronase monitored by HPLC” value (pronase)?
**A.** The value was “no detectable degradation”.

**Q.** And the “selectivity toward cancer cells over normal cells” value ([7]; A549 versus HEK293)?
**A.** Its value is ~8 fold.

**Q.** What about the IC50 ([7]; read-out: IC50 for HEK293 cells, no EGF stimulation, CCK-8) of the same molecule?
**A.** The IC50 was 62.1 µM.

**Q.** What about the IC50 [8] of the same molecule?
**A.** Its IC50 is 11.2 µM.

**Q.** And the “P-AKT level in tumor tissue” value (P-AKT)?
**A.** Its value is “dramatic decrease”.

**Q.** And the “Papp, PAMPA-GIT (in words)” value (PAMPA-GIT assay)?
**A.** Its value is “favorable Papp without pH-dependence”.

**Q.** What about the “inhibition of P-ERK in tumor tissue” value (P-ERK) of the same molecule?
**A.** The value was “slightly weaker efficiency”.

**Q.** What about the “tumor volume versus PBS group” value ([9]; 10 mg/kg intraperitoneal) of the same molecule?
**A.** Its value is “no significant differences”.

**Q.** What about the “tumor growth versus PBS group” value ([9]; 50 mg/kg intraperitoneal) of the same molecule?
**A.** Its value is “significant suppression of tumor growth”.

**Q.** What about the Papp at 1 h, 50 μM (PAMPA-BBB assay) of the same molecule?
**A.** Its Papp at 1 h, 50 μM is 266.

**Q.** And the “number of migrating cells relative to untreated control (100%)” value (A549 cells [10])?
**A.** Its value is 64.8%.

**Q.** And the IC50 (A549 cells [11]; CCK-8, read-out: IC50 of antiproliferative activity on EGF-stimulated cells)?
**A.** The IC50 was 8.23 µM.

**Q.** And the “suppression of EGF-driven cell proliferation at ˜10” value (A549 cells [11]; at ˜10 (unit not given), versus control without EGF)?
**A.** The value was “complete suppression of cell proliferation”.
